Experimental data from the NIST ThermoML archive (doi:10.1016/j.fluid.2006.01.028).

How the values were obtained:
[1] = for surface tension liquid-gas: Drop volume; for mass density: Liquid
[2] = xn = mol fraction of the nth substance listed; conditions: for surface tension liquid-gas: Drop volume; for mass density: 101 kPa, Liquid

CCCCCCO [hexan-1-ol]
[1]
Conditions | mass density [kg/m3] | surface tension liquid-gas [mN/m]
288.15 K | 822.28 | 26.08
298.15 K | 815.23 | 25.19
308.15 K | 808 | 24.19

CCCCCCCCC [nonane]
[1]
Conditions | mass density [kg/m3] | surface tension liquid-gas [mN/m]
288.15 K | 721.78 | 23.38
298.15 K | 714.02 | 22.37
308.15 K | 706.21 | 21.25

CCCCCCCCC [nonane] + CCCCCCO
[2]
Conditions | mass density [kg/m3] | surface tension liquid-gas [mN/m]
288.15 K, x1 = 0.05 | – | 25.77
288.15 K, x1 = 0.0509 | 815.13 | –
288.15 K, x1 = 0.1003 | 808.46 | –
288.15 K, x1 = 0.1082 | – | 25.47
288.15 K, x1 = 0.2028 | 795.35 | –
288.15 K, x1 = 0.2075 | – | 25.06
288.15 K, x1 = 0.307 | 783.01 | –
288.15 K, x1 = 0.3079 | – | 24.62
288.15 K, x1 = 0.4026 | 772.51 | –
288.15 K, x1 = 0.4075 | – | 24.31
288.15 K, x1 = 0.5066 | – | 24.01
288.15 K, x1 = 0.5086 | 761.75 | –
288.15 K, x1 = 0.6016 | 753.02 | –
288.15 K, x1 = 0.6024 | – | 23.81
288.15 K, x1 = 0.7079 | – | 23.68
288.15 K, x1 = 0.708 | 743.74 | –
288.15 K, x1 = 0.808 | 735.7 | –
288.15 K, x1 = 0.8081 | – | 23.57
288.15 K, x1 = 0.9016 | 728.72 | –
288.15 K, x1 = 0.9036 | – | 23.48
288.15 K, x1 = 0.9506 | 725.26 | –
288.15 K, x1 = 0.9554 | – | 23.44
298.15 K, x1 = 0.0504 | – | 24.84
298.15 K, x1 = 0.0509 | 807.93 | –
298.15 K, x1 = 0.1003 | 801.18 | –
298.15 K, x1 = 0.1004 | – | 24.54
298.15 K, x1 = 0.2028 | 787.95 | –
298.15 K, x1 = 0.2042 | – | 24.12
298.15 K, x1 = 0.2998 | – | 23.69
298.15 K, x1 = 0.307 | 775.48 | –
298.15 K, x1 = 0.388 | – | 23.41
298.15 K, x1 = 0.4026 | 764.9 | –
298.15 K, x1 = 0.5011 | – | 23.07
298.15 K, x1 = 0.5086 | 754.06 | –
298.15 K, x1 = 0.6016 | 745.28 | –
298.15 K, x1 = 0.606 | – | 22.84
298.15 K, x1 = 0.708 | 735.96 | –
298.15 K, x1 = 0.7086 | – | 22.66
298.15 K, x1 = 0.808 | 727.88 | –
298.15 K, x1 = 0.8085 | – | 22.56
298.15 K, x1 = 0.9007 | – | 22.48
298.15 K, x1 = 0.9016 | 720.88 | –
298.15 K, x1 = 0.9506 | 717.44 | –
298.15 K, x1 = 0.9508 | – | 22.39
308.15 K, x1 = 0.0509 | 800.64 | –
308.15 K, x1 = 0.0511 | – | 23.81
308.15 K, x1 = 0.1003 | 793.82 | –
308.15 K, x1 = 0.1013 | – | 23.52
308.15 K, x1 = 0.2028 | 780.43 | –
308.15 K, x1 = 0.2059 | – | 23.08
308.15 K, x1 = 0.3066 | – | 22.59
308.15 K, x1 = 0.307 | 767.86 | –
308.15 K, x1 = 0.4026 | 757.19 | –
308.15 K, x1 = 0.404 | – | 22.27
308.15 K, x1 = 0.5065 | – | 21.98
308.15 K, x1 = 0.5086 | 746.28 | –
308.15 K, x1 = 0.6016 | 737.44 | –
308.15 K, x1 = 0.6028 | – | 21.77
308.15 K, x1 = 0.708 | 728.09 | –
308.15 K, x1 = 0.7135 | – | 21.59
308.15 K, x1 = 0.8059 | – | 21.47
308.15 K, x1 = 0.808 | 719.98 | –
308.15 K, x1 = 0.9016 | 712.97 | –
308.15 K, x1 = 0.9043 | – | 21.34
308.15 K, x1 = 0.9506 | 709.52 | –
308.15 K, x1 = 0.9519 | – | 21.27
